For 6 compounds, EC50 results are on record in patent publication US8895504B2, “Amylin derivatives” (priority 2008, dated 2014).

In the assay the target is T1, Amylin 3(a) receptor (human calcitonin receptor (CTa) and RAMP-3) (Homo sapiens, UniProt O60896+P30988).
T1 construct: expressed in transfected cells; host or cells: BHK570 cells, stably transfected with a CRE-luciferase reporter
Briefly: Luciferase assay (III), BHK Amylin 3(a)//CRE-luc cells. It counts as cell-based. The conditions noted are these: BHK cells with Amylin 3(a) receptor and CRE luciferase reporter, 4 hours incubation; read-out: Potency Luciferase. The method in brief:
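Read-out is CRE-driven luciferase luminescence, taken 30 min after LucLite addition at room temperature. Compounds were incubated 4 h at 37° C in assay medium (10% FBS, 10 mM Hepes, pH 7,4). The cell line is BHK570 co-transfected with human calcitonin receptor CTa and RAMP-3, seeded overnight before use.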
For orientation: In a reporter assay the amount or activity of a reporter protein is the signal.

Structures are written as SMILES. *1 amine or outer side, *2 acyl side, *3 side chain or, on linkers, in order; H or OH if unused. Where a SMILES comes first, the peptide text is derived from it. Bridges are numbered along the chain shown (N, C = ends). The star is where a group is joined. C20 diacid = O=C(O)CCCCCCCCCCCCCCCCCCC(=O)*; γGlu = O=C(O)[C@H](CCC(=O)[*:2])N[*:1]

T1 sequence (O60896 24-148): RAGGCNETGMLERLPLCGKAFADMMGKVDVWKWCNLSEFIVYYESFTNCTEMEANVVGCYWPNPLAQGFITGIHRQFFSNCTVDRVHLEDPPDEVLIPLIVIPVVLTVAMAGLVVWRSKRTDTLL
T1 sequence (P30988 25-474): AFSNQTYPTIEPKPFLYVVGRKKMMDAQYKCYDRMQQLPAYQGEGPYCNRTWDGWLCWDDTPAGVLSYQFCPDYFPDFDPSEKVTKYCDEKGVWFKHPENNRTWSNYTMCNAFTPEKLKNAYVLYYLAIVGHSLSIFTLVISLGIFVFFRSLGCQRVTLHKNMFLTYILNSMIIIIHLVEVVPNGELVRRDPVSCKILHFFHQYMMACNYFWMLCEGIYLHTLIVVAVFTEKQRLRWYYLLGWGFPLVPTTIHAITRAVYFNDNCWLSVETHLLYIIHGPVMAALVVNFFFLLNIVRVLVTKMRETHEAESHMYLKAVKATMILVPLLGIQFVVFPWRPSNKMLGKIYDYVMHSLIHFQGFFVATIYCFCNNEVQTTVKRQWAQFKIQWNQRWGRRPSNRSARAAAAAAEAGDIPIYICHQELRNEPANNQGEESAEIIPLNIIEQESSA

As to `CC[C@H](C)[C@H](NC(=O)[C@@H]1CCCN1C(=O)CNC(=O)[C@H](Cc1ccccc1)NC(=O)[C@H](CC(N)=O)NC(=O)[C@H](CC(N)=O)NC(=O)[C@H](CO)NC(=O)[C@H](CO)NC(=O)[C@H](Cc1c[nH]cn1)NC(=O)[C@H](Cc1c[nH]cn1)NC(=O)[C@H](CC(C)C)NC(=O)[C@H](Cc1ccccc1)NC(=O)[C@H](CC(N)=O)NC(=O)[C@H](C)NC(=O)[C@H](CC(C)C)NC(=O)[C@H](CCCNC(=N)N)NC(=O)[C@H](CCC(N)=O)NC(=O)[C@@H](NC(=O)[C@H](C)NC(=O)[C@@H]1CSSC[C@H](NC(=O)[C@H](Cc2c[nH]cn2)NC(=O)[C@H](CCCNC(=N)N)NC(=O)[C@H](Cc2c[nH]cn2)NC(=O)[C@H](CCC(=O)O)NC(=O)CC[C@H](NC(=O)CCCCCCCCCCCCCCCCCCC(=O)O)C(=O)O)C(=O)N[C@@H](CC(N)=O)C(=O)N[C@@H]([C@@H](C)O)C(=O)N[C@@H](C)C(=O)N[C@@H]([C@@H](C)O)C(=O)N1)[C@@H](C)O)C(=O)N[C@@H](CC(C)C)C(=O)N1CCC[C@H]1C(=O)N1CCC[C@H]1C(=O)N[C@H](C(=O)N[C@@H](CC(N)=O)C(=O)N[C@H](C(=O)NCC(=O)N[C@@H](CO)C(=O)N[C@@H](CC(N)=O)C(=O)N[C@H](C(=O)N[C@@H](Cc1ccc(O)cc1)C(N)=O)[C@@H](C)O)C(C)C)[C@@H](C)O` [Example 66, N-alpha-[(S)-4-Carboxy-4-(19-carboxynonadecanoylamino)butyryl]-Glu-His-Arg-[His1,His17]-pramlintide] ({C20 diacid-γGlu}-EHRHCNTATCATQRLANFLHHSSNNFGPILPPTNVGSNTY-NH2; disulfide 5-10), the EC50 turned out to be 0.1 nM.

For the compound `CC[C@H](C)[C@H](NC(=O)[C@@H]1CCCN1C(=O)CNC(=O)[C@H](Cc1ccccc1)NC(=O)[C@H](CC(N)=O)NC(=O)[C@H](CC(N)=O)NC(=O)[C@H](CO)NC(=O)[C@H](CO)NC(=O)[C@H](Cc1c[nH]cn1)NC(=O)[C@H](Cc1c[nH]cn1)NC(=O)[C@H](CC(C)C)NC(=O)[C@H](Cc1ccccc1)NC(=O)[C@H](CC(N)=O)NC(=O)[C@H](C)NC(=O)[C@H](CC(C)C)NC(=O)[C@H](CCCNC(=N)N)NC(=O)[C@H](CCC(N)=O)NC(=O)[C@@H](NC(=O)[C@H](C)NC(=O)[C@@H]1CSSC[C@H](NC(=O)[C@H](CCCNC(=N)N)NC(=O)[C@H](Cc2c[nH]cn2)NC(=O)[C@H](Cc2c[nH]cn2)NC(=O)[C@H](CCC(=O)O)NC(=O)CC[C@H](NC(=O)CCCCCCCCCCCCCCCCCCC(=O)O)C(=O)O)C(=O)N[C@@H](CC(N)=O)C(=O)N[C@@H]([C@@H](C)O)C(=O)N[C@@H](C)C(=O)N[C@@H]([C@@H](C)O)C(=O)N1)[C@@H](C)O)C(=O)N[C@@H](CC(C)C)C(=O)N1CCC[C@H]1C(=O)N1CCC[C@H]1C(=O)N[C@H](C(=O)N[C@@H](CC(N)=O)C(=O)N[C@H](C(=O)NCC(=O)N[C@@H](CO)C(=O)N[C@@H](CC(N)=O)C(=O)N[C@H](C(=O)N[C@@H](Cc1ccc(O)cc1)C(N)=O)[C@@H](C)O)C(C)C)[C@@H](C)O` [Example 67, N-alpha-[(S)-4-Carboxy-4-(19-carboxynonadecanoylamino)butyryl]-Glu-His-His-[Arg1,His17]-pramlintide] ({C20 diacid-γGlu}-EHHRCNTATCATQRLANFLHHSSNNFGPILPPTNVGSNTY-NH2; disulfide 5-10), the EC50 is 0.1 nM.

`CC[C@H](C)[C@H](NC(=O)[C@@H]1CCCN1C(=O)CNC(=O)[C@H](Cc1ccccc1)NC(=O)[C@H](CC(N)=O)NC(=O)[C@H](CCC(N)=O)NC(=O)[C@H](CO)NC(=O)[C@H](CO)NC(=O)[C@H](Cc1c[nH]cn1)NC(=O)[C@H](CCCNC(=N)N)NC(=O)[C@H](CC(C)C)NC(=O)[C@H](Cc1ccccc1)NC(=O)[C@H](CC(N)=O)NC(=O)[C@H](C)NC(=O)[C@H](CC(C)C)NC(=O)[C@H](CCCNC(=N)N)NC(=O)[C@H](CCC(N)=O)NC(=O)[C@@H](NC(=O)[C@H](C)NC(=O)[C@@H]1CSSC[C@H](NC(=O)[C@H](CCCNC(=N)N)NC(=O)[C@H](Cc2c[nH]cn2)NC(=O)[C@H](Cc2c[nH]cn2)NC(=O)[C@H](CCC(=O)O)NC(=O)CC[C@H](NC(=O)CCCCCCCCCCCCCCCCCCC(=O)O)C(=O)O)C(=O)N[C@@H](CC(N)=O)C(=O)N[C@@H]([C@@H](C)O)C(=O)N[C@@H](C)C(=O)N[C@@H]([C@@H](C)O)C(=O)N1)[C@@H](C)O)C(=O)N[C@@H](CC(C)C)C(=O)N1CCC[C@H]1C(=O)N1CCC[C@H]1C(=O)N[C@H](C(=O)N[C@@H](CC(N)=O)C(=O)N[C@H](C(=O)NCC(=O)N[C@@H](CO)C(=O)N[C@@H](CC(N)=O)C(=O)N[C@H](C(=O)N[C@@H](Cc1ccc(O)cc1)C(N)=O)[C@@H](C)O)C(C)C)[C@@H](C)O` [Example 68, N-alpha-[(S)-4-Carboxy-4-(19-carboxynonadecanoylamino)butyryl]-Glu-His-His-[Arg1,Arg17,Gln21]-pramlintide] ({C20 diacid-γGlu}-EHHRCNTATCATQRLANFLRHSSQNFGPILPPTNVGSNTY-NH2; disulfide 5-10): the EC50 was 0.1 nM.

Consider `CC[C@H](C)[C@H](NC(=O)[C@@H]1CCCN1C(=O)CNC(=O)[C@H](Cc1ccccc1)NC(=O)[C@H](CC(N)=O)NC(=O)[C@H](CC(N)=O)NC(=O)[C@H](CO)NC(=O)[C@H](CO)NC(=O)[C@H](Cc1c[nH]cn1)NC(=O)[C@H](Cc1c[nH]cn1)NC(=O)[C@H](CC(C)C)NC(=O)[C@H](Cc1ccccc1)NC(=O)[C@H](CC(N)=O)NC(=O)[C@H](C)NC(=O)[C@H](CC(C)C)NC(=O)[C@H](CCCNC(=N)N)NC(=O)[C@H](CCC(N)=O)NC(=O)[C@@H](NC(=O)[C@H](C)NC(=O)[C@@H]1CSSC[C@H](NC(=O)[C@H](CCCNC(=N)N)NC(=O)[C@H](Cc2c[nH]cn2)NC(=O)[C@H](CCCNC(=N)N)NC(=O)[C@H](CCC(=O)O)NC(=O)CC[C@H](NC(=O)CCCCCCCCCCCCCCCCCCC(=O)O)C(=O)O)C(=O)N[C@@H](CC(N)=O)C(=O)N[C@@H]([C@@H](C)O)C(=O)N[C@@H](C)C(=O)N[C@@H]([C@@H](C)O)C(=O)N1)[C@@H](C)O)C(=O)N[C@@H](CC(C)C)C(=O)N1CCC[C@H]1C(=O)N1CCC[C@H]1C(=O)N[C@H](C(=O)N[C@@H](CC(N)=O)C(=O)N[C@H](C(=O)NCC(=O)N[C@@H](CO)C(=O)N[C@@H](CC(N)=O)C(=O)N[C@H](C(=O)N[C@@H](Cc1ccc(O)cc1)C(N)=O)[C@@H](C)O)C(C)C)[C@@H](C)O` [Example 69, N-alpha-[(S)-4-Carboxy-4-(19-carboxynonadecanoylamino)butyryl]-Glu-Arg-His-[Arg1,His17]-pramlintide] ({C20 diacid-γGlu}-ERHRCNTATCATQRLANFLHHSSNNFGPILPPTNVGSNTY-NH2; disulfide 5-10), for which the EC50 is 0.1 nM.

`CC[C@H](C)[C@H](NC(=O)[C@@H]1CCCN1C(=O)CNC(=O)[C@H](Cc1ccccc1)NC(=O)[C@H](CC(N)=O)NC(=O)[C@H](CC(N)=O)NC(=O)[C@H](CO)NC(=O)[C@H](CO)NC(=O)[C@H](Cc1c[nH]cn1)NC(=O)[C@H](Cc1c[nH]cn1)NC(=O)[C@H](CC(C)C)NC(=O)[C@H](Cc1ccccc1)NC(=O)[C@H](CC(N)=O)NC(=O)[C@H](C)NC(=O)[C@H](CC(C)C)NC(=O)[C@H](CCCNC(=N)N)NC(=O)[C@H](CCC(N)=O)NC(=O)[C@@H](NC(=O)[C@H](C)NC(=O)[C@@H]1CSSC[C@H](NC(=O)[C@H](CCCNC(=N)N)NC(=O)[C@H](Cc2c[nH]cn2)NC(=O)[C@H](CCCNC(=N)N)NC(=O)CC[C@H](NC(=O)CCCCCCCCCCCCCCCCCCC(=O)O)C(=O)O)C(=O)N[C@@H](CC(N)=O)C(=O)N[C@@H]([C@@H](C)O)C(=O)N[C@@H](C)C(=O)N[C@@H]([C@@H](C)O)C(=O)N1)[C@@H](C)O)C(=O)N[C@@H](CC(C)C)C(=O)N1CCC[C@H]1C(=O)N1CCC[C@H]1C(=O)N[C@H](C(=O)N[C@@H](CC(N)=O)C(=O)N[C@H](C(=O)NCC(=O)N[C@@H](CO)C(=O)N[C@@H](CC(N)=O)C(=O)N[C@H](C(=O)N[C@@H](Cc1ccc(O)cc1)C(N)=O)[C@@H](C)O)C(C)C)[C@@H](C)O` [Example 70, N-alpha-[(S)-4-Carboxy-4-(19-carboxynonadecanoylamino)butyryl]-Arg-His[Arg1,His17]-pramlintide] ({C20 diacid-γGlu}-RHRCNTATCATQRLANFLHHSSNNFGPILPPTNVGSNTY-NH2; disulfide 4-9): the EC50 turned out to be 0.1 nM.

Turning to `CC[C@H](C)[C@H](NC(=O)[C@@H]1CCCN1C(=O)CNC(=O)[C@H](Cc1ccccc1)NC(=O)[C@H](CC(N)=O)NC(=O)[C@H](CC(N)=O)NC(=O)[C@H](CO)NC(=O)[C@H](CO)NC(=O)[C@H](Cc1c[nH]cn1)NC(=O)[C@H](Cc1c[nH]cn1)NC(=O)[C@H](CC(C)C)NC(=O)[C@H](Cc1ccccc1)NC(=O)[C@H](CC(N)=O)NC(=O)[C@H](C)NC(=O)[C@H](CC(C)C)NC(=O)[C@H](CCCNC(=N)N)NC(=O)[C@H](CCC(N)=O)NC(=O)[C@@H](NC(=O)[C@H](C)NC(=O)[C@@H]1CSSC[C@H](NC(=O)[C@H](CCCNC(=N)N)NC(=O)[C@H](Cc2c[nH]cn2)NC(=O)[C@H](Cc2c[nH]cn2)NC(=O)CC[C@H](NC(=O)CCCCCCCCCCCCCCCCCCC(=O)O)C(=O)O)C(=O)N[C@@H](CC(N)=O)C(=O)N[C@@H]([C@@H](C)O)C(=O)N[C@@H](C)C(=O)N[C@@H]([C@@H](C)O)C(=O)N1)[C@@H](C)O)C(=O)N[C@@H](CC(C)C)C(=O)N1CCC[C@H]1C(=O)N1CCC[C@H]1C(=O)N[C@H](C(=O)N[C@@H](CC(N)=O)C(=O)N[C@H](C(=O)NCC(=O)N[C@@H](CO)C(=O)N[C@@H](CC(N)=O)C(=O)N[C@H](C(=O)N[C@@H](Cc1ccc(O)cc1)C(N)=O)[C@@H](C)O)C(C)C)[C@@H](C)O` [Example 71, N-alpha-[(S)-4-Carboxy-4-(19-carboxynonadecanoylamino)butyryl]-His-His-[Arg1,His17]-pramlintide] ({C20 diacid-γGlu}-HHRCNTATCATQRLANFLHHSSNNFGPILPPTNVGSNTY-NH2; disulfide 4-9), the EC50 was 0.09 nM.
